Laboratory results published in ChEMBL document CHEMBL5614382, “Discovery of a new 1-(phenylsulfonyl)-1H-indole derivative targeting the EphA2 receptor with antiproliferative activity on U251 glioblastoma cell line” (Eur J Med Chem, 2024).

Molecular target: Ephrin type-A receptor 2 (Mus musculus, UniProt Q03145)
Assay: Displacement of biotinylated Fc-tagged ephrin-A1 from C/N-terminal 6-His tagged mouse recombinant EphA2 (Ala22 to Ala535 residues) preincubated for 1 hr followed by ephrin-A1-Fc addition and measured after 4 to 5 hrs by ELISA assay

Ephrin type-A receptor 2, sequence (Q03145 whole entry): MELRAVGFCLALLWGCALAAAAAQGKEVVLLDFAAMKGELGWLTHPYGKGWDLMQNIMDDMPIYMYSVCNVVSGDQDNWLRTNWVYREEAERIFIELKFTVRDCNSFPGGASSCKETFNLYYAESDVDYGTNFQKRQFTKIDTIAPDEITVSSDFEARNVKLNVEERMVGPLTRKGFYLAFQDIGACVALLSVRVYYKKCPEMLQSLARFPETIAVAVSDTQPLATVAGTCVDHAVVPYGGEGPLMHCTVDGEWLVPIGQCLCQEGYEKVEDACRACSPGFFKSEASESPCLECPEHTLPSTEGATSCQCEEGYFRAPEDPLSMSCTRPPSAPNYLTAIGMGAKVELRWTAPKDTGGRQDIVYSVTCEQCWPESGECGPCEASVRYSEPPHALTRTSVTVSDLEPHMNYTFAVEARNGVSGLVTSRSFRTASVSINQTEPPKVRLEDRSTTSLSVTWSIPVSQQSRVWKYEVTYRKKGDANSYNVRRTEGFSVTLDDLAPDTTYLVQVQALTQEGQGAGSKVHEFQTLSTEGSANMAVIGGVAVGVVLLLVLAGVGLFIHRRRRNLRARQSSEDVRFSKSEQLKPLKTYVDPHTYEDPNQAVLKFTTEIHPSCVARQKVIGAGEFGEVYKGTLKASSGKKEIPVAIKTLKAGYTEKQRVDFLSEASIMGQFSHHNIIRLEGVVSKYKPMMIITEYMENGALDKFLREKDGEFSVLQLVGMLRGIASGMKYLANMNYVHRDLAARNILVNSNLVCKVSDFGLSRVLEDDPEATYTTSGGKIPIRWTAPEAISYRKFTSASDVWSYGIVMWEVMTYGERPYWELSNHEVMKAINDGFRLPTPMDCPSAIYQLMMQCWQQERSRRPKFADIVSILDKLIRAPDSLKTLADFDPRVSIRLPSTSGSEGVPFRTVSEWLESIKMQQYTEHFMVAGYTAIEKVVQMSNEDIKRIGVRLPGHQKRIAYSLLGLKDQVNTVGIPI

Cc1ccc(S(=O)(=O)n2cc(C[C@@H](CC(=O)O)NC(=O)CC[C@@H](C)[C@H]3CC[C@H]4[C@@H]5CC=C6C[C@@H](O)CC[C@]6(C)[C@H]5CC[C@]34C)c3ccccc32)cc1 and C[C@H](CCC(=O)N[C@H](CC(=O)O)Cc1cn(S(=O)(=O)c2ccc(F)cc2)c2ccccc12)[C@H]1CC[C@H]2[C@@H]3CC=C4C[C@@H](O)CC[C@]4(C)[C@H]3CC[C@]12C are within 1.5-fold of each other in IC50: 8.3 µM for the first, 8.2 µM for the second.

C[C@H](CCC(=O)N[C@H](CC(=O)O)Cc1cn(S(=O)(=O)c2cccc(C#N)c2)c2ccccc12)[C@H]1CC[C@H]2[C@@H]3CC=C4C[C@@H](O)CC[C@]4(C)[C@H]3CC[C@]12C and Cc1cccc(S(=O)(=O)n2cc(C[C@@H](CC(=O)O)NC(=O)CC[C@@H](C)[C@H]3CC[C@H]4[C@@H]5CC=C6C[C@@H](O)CC[C@]6(C)[C@H]5CC[C@]34C)c3ccccc32)c1 are the same in IC50: 24 µM for the first, 24 µM for the second.

Compared with C[C@H](CCC(=O)N[C@H](CC(=O)O)Cc1cn(S(=O)(=O)c2cccc(C(F)(F)F)c2)c2ccccc12)[C@H]1CC[C@H]2[C@@H]3CC=C4C[C@@H](O)CC[C@]4(C)[C@H]3CC[C@]12C, C[C@H](CCC(=O)N[C@H](CC(=O)O)Cc1cn(S(=O)(=O)c2cccc(F)c2)c2ccccc12)[C@H]1CC[C@H]2[C@@H]3CC=C4C[C@@H](O)CC[C@]4(C)[C@H]3CC[C@]12C is 2.4-fold higher in IC50: 12 µM for the first, 29 µM for the second. The first is the more potent here.

C[C@H](CCC(=O)N[C@H](CC(=O)O)Cc1cn(S(=O)(=O)c2cccc(-c3ccccc3)c2)c2ccccc12)[C@H]1CC[C@H]2[C@@H]3CC=C4C[C@@H](O)CC[C@]4(C)[C@H]3CC[C@]12C and C[C@H](CCC(=O)N[C@H](CC(=O)O)Cc1cn(S(=O)(=O)c2ccc(-c3ccccc3)cc2)c2ccccc12)[C@H]1CC[C@H]2[C@@H]3CC=C4C[C@@H](O)CC[C@]4(C)[C@H]3CC[C@]12C are within 1.5-fold of each other in IC50: 16 µM for the first, 20 µM for the second.

Compared with C[C@H](CCC(=O)N[C@H](CC(=O)O)Cc1cn(S(=O)(=O)c2cccnc2)c2ccccc12)[C@H]1CC[C@H]2[C@@H]3CC=C4C[C@@H](O)CC[C@]4(C)[C@H]3CC[C@]12C, C[C@H](CCC(=O)N[C@H](CC(=O)O)Cc1cn(S(=O)(=O)c2cccc(N)c2)c2ccccc12)[C@H]1CC[C@H]2[C@@H]3CC=C4C[C@@H](O)CC[C@]4(C)[C@H]3CC[C@]12C is 2.9-fold lower in IC50: 16 µM for the first, 5.6 µM for the second. The second is the more potent here.

C[C@H](CCC(=O)N[C@H](CC(=O)O)Cc1cn(S(=O)(=O)c2ccsc2)c2ccccc12)[C@H]1CC[C@H]2[C@@H]3CC=C4C[C@@H](O)CC[C@]4(C)[C@H]3CC[C@]12C and C[C@H](CCC(=O)N[C@H](CC(=O)O)Cc1cn(S(=O)(=O)c2ccoc2)c2ccccc12)[C@H]1CC[C@H]2[C@@H]3CC=C4C[C@@H](O)CC[C@]4(C)[C@H]3CC[C@]12C are within 1.5-fold of each other in IC50: 5.5 µM for the first, 6.9 µM for the second.

First: C[C@H](CCC(=O)N[C@H](CC(=O)O)Cc1cn(S(=O)(=O)c2ccc([N+](=O)[O-])cc2)c2ccccc12)[C@H]1CC[C@H]2[C@@H]3CC=C4C[C@@H](O)CC[C@]4(C)[C@H]3CC[C@]12C
Second: C[C@H](CCC(=O)N[C@H](CC(=O)O)Cc1cn(S(=O)(=O)c2cccc([N+](=O)[O-])c2)c2ccccc12)[C@H]1CC[C@H]2[C@@H]3CC=C4C[C@@H](O)CC[C@]4(C)[C@H]3CC[C@]12C
The IC50 of the first is 11-fold lower: 3.6 µM for the first, 38 µM for the second.

First: C[C@H](CCC(=O)N[C@H](CC(=O)O)Cc1cn(S(=O)(=O)c2ccc(N)cc2)c2ccccc12)[C@H]1CC[C@H]2[C@@H]3CC=C4C[C@@H](O)CC[C@]4(C)[C@H]3CC[C@]12C
Second: C[C@H](CCC(=O)N[C@H](CC(=O)O)Cc1cn(S(=O)(=O)c2ccc(C#N)cc2)c2ccccc12)[C@H]1CC[C@H]2[C@@H]3CC=C4C[C@@H](O)CC[C@]4(C)[C@H]3CC[C@]12C
The IC50 of the first is 2.1-fold lower: 4.7 µM for the first, 9.9 µM for the second.
